Data published in ChEMBL document CHEMBL2074472, “In vitro and in vivo reversal of cancer cell multidrug resistance by the semi-synthetic antibiotic tiamulin” (Biochem Pharmacol, 1998).

What was measured:
Assay type in all cases: functional, cell-based
[1] = target: ATP-dependent translocase ABCB1 (Homo sapiens, UniProt P08183); assay: TP_TRANSPORTER: increase in Daunomycin intracellular accumulation (Daunomycin: 1.9 uM, Tiamulin: 2 uM) in CEM/VLB3.6 cells, flow cytometry; settings: cem/vlb3.6, 2 µM
Sequence of ATP-dependent translocase ABCB1 (Homo sapiens, UniProt P08183) (P08183 whole entry): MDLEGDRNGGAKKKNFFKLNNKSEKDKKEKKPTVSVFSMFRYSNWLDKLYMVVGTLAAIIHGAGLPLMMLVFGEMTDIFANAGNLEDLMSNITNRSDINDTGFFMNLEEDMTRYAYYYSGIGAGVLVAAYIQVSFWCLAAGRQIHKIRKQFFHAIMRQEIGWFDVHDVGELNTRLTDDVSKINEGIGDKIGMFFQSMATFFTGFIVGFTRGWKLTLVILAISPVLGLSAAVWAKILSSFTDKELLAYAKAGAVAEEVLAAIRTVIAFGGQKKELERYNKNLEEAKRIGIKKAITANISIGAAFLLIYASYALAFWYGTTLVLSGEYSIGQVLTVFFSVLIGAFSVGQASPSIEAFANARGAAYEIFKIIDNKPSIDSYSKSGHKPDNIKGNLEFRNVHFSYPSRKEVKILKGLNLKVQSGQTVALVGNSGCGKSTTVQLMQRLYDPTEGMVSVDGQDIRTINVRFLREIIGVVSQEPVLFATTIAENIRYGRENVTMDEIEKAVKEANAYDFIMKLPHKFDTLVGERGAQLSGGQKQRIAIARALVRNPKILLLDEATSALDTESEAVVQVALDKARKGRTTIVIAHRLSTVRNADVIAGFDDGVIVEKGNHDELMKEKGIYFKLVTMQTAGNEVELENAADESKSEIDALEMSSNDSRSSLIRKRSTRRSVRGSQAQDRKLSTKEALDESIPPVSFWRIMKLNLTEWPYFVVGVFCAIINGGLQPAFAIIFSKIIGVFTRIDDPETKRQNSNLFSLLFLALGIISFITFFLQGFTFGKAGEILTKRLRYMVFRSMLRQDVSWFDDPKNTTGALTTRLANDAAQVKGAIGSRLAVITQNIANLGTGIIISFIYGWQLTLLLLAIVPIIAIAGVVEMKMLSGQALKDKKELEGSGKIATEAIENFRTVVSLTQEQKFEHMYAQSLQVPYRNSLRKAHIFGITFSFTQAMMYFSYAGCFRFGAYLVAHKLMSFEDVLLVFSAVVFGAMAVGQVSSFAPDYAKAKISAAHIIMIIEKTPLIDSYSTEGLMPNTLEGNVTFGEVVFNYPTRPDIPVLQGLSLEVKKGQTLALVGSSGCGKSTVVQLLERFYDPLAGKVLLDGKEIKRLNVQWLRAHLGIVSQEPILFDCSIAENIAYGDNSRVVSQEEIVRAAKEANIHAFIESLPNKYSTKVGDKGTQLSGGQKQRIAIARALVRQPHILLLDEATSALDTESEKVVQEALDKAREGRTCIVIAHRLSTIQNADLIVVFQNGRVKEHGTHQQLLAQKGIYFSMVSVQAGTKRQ

[2] = target: ATP-dependent translocase ABCB1 (Mus musculus, UniProt P21447); assay: TP_TRANSPORTER: increase in Daunomycin intracellular accumulation (Daunomycin: 1.9 uM, Tiamulin: 2 uM) in P388/ADR25 cells, flow cytometry; settings: p388/adr25, 2 µM
Sequence of ATP-dependent translocase ABCB1 (Mus musculus, UniProt P21447) (P21447 whole entry): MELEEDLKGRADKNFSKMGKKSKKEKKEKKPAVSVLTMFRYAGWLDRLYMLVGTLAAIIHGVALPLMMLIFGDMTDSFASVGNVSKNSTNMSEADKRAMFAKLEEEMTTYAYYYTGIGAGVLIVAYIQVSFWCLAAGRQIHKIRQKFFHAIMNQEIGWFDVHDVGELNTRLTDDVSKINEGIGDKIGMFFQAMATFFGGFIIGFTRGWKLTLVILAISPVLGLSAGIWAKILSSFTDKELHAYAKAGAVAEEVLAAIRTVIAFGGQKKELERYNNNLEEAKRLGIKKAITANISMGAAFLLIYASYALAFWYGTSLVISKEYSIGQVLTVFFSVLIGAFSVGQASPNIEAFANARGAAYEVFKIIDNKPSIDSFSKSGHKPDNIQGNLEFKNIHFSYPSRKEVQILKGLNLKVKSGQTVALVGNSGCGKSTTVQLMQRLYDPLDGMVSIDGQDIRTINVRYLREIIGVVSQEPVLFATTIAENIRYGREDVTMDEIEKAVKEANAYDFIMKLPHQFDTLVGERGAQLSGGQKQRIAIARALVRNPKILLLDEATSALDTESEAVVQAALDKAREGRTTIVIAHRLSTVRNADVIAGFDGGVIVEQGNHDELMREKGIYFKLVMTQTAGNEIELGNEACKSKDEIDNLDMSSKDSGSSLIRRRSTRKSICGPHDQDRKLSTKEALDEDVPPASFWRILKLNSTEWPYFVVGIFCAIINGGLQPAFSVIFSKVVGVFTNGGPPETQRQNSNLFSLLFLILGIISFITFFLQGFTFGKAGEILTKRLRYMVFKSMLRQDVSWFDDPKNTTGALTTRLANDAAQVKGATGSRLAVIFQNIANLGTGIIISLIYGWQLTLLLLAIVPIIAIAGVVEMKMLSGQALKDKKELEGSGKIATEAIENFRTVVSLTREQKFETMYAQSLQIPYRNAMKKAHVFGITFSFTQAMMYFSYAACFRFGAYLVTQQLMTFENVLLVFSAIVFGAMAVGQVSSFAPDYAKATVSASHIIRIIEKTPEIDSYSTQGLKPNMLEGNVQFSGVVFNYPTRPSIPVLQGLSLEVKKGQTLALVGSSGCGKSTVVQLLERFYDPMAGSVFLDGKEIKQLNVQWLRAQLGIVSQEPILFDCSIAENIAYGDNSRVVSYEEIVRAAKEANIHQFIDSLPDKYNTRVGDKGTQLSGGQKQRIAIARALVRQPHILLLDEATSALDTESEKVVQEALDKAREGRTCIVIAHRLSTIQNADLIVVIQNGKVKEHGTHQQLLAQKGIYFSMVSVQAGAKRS

[3] = target: Multidrug resistance protein 1a (Rattus norvegicus) (UniProt Q6PSM0); assay: TP_TRANSPORTER: increase in Daunomycin intracellular accumulation (Daunomycin: 1.9 uM, Tiamulin: 2 uM) in AS30-D/COL10 cells, flow cytometry
Sequence of Multidrug resistance protein 1a (Rattus norvegicus) (Q6PSM0 as listed by the source): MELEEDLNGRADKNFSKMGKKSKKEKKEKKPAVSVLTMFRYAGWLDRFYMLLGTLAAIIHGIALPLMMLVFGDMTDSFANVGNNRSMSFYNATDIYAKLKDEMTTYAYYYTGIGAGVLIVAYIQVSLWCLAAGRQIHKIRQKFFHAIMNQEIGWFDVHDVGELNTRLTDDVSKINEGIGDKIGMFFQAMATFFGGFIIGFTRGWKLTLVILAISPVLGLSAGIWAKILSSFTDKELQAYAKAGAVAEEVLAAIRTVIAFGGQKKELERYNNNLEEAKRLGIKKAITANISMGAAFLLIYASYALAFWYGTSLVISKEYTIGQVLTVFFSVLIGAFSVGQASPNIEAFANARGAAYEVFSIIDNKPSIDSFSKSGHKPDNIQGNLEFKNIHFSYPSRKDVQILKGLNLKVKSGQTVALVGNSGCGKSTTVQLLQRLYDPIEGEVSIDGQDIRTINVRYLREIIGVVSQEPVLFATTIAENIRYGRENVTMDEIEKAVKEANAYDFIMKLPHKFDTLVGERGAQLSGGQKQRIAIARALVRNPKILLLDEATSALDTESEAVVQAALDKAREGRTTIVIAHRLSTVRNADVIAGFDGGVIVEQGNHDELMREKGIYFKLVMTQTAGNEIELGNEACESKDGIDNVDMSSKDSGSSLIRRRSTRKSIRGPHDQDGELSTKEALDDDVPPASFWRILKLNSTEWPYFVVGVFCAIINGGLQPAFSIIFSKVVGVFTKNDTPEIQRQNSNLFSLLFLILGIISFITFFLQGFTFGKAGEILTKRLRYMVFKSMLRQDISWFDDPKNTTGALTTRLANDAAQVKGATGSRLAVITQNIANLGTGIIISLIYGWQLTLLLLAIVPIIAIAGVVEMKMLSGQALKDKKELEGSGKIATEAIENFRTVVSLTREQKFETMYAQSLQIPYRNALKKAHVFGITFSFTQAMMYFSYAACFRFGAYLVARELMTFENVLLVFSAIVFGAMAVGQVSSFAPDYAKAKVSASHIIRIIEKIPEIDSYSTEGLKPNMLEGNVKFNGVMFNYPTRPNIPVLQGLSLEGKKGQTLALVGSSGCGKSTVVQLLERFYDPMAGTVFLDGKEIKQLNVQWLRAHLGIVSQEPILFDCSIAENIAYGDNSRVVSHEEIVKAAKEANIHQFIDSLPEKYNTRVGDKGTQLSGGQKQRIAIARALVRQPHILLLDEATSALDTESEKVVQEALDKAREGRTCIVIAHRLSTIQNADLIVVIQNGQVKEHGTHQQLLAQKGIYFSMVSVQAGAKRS

Structure (SMILES): C=C[C@]1(C)C[C@@H](OC(=O)CSCCN(CC)CC)[C@]2(C)[C@H](C)CC[C@]3(CCC(=O)[C@H]32)[C@@H](C)[C@@H]1O [TIAMULIN]
- Activity [1]: inhibitor [+]
- Activity [2]: inhibitor [+]
- Activity [3]: inhibitor [+]
